Where “and” joins values, the source holds several entries; their conditions need not be identical. Identical values can stand only once. Entries after “also recorded” stand apart in the source; their conditions may differ.
Legend:
[1] = system: CXCR4 mRNA; assay: QRT-PCR of CXCR4 mRNA; type: cell-based; conditions: for time post-exposure of (maximal) CXCR4 mRNA upregulation: vs vehicle
Description: Total RNA was obtained using the absolutely RNA purification kit (Stratagene, La Jolla, Calif.). A constant amount of RNA was reverse transcribed with random primers (Promega, Madison, Wis.) and MMLV-reverse transcriptase (Promega) in a volume of 50 microLiter with 1 milliMolar dNTPs and RNase inhibitor as described (Fukuda and Pelus, 2001). DNase and RNase free water (Ambion, Austin, Tex.) was added to obtain a final concentration equivalent of 10 nanogram RNA/microLiter and 5 microLiter used for QRT-PCR. Primers for SYBR Green QRTPCR were designed to produce an amplicon size of 75-150 bp. QRT-PCR was performed in a total volume of 30 microLiter using Platinum SYBR Green qPCR supermix UDG with Rox (Invitrogen, Carlsbad, Calif.) in an ABI-7000 (Applied Biosystems, Carlsbad, Calif.), with an activation step of 50° C. for 2 min, denaturation at 95° C. for 2 min and amplification for 45 cycles at 95° C.-15 sec, 50° C.-30 sec, 72° C.-30 sec, followed by dissociation to confirm that only one product was obtained.
Referring now to FIG. 4A, the stromal-cell-derived factor-1 alpha (SDF-1a)/CXCR4 axis has been implicated in HSPC trafficking and homing. The study evaluated whether the improved homing of dmPGE2-treated HSPC was the result of increased SDF-1a/CXCR4 signalling.
To evaluate CXCR4, Lineage^neg mouse bone marrow cells or CD34^+ UCB were treated on ice with either 1 microMolar dmPGE2 or vehicle control for 2 hours, washed, and then cultured in RPMI-1640/10% HI-FBS at 37° C. for 24 hours, stained for SKL (murine cells) or CD34 (human) and CXCR4 and analyzed by FACS. Referring now to FIG. 4A, CXCR4 expression on murine KL and SKL cells and human CD34^+ UCB cells 24 hours after treatment with dmPGE2. Data are expressed as Mean±SEM % change in mean fluorescence intensity (MFI) of CXCR4 due to treatment with dmPGE2 or vehicle (n=3).

[2] = system: long-term repopulating HSPC; assay: Limiting dilution competitive transplantation of ex vivo pulsed bone marrow; type: in vivo, mouse
Description: WBM cells (CD45.2) were treated on ice for 2 hours with either 1 microMolar dmPGE2 (Cayman Chemical, Ann Arbor, Mich.) per 1×10^6 cells or 0.01% ETOH in sterile, non-pyrogenic PBS. After incubation, cells were washed twice and mixed with 2×10^5 congenic CD45.1 competitor marrow cells at ratios of 0.075:1, 0.25:1, 1:1, and 2.5:1 and transplanted into lethally irradiated CD45.1 mice (1100-cGy split dose) by tail-vein injection (5 mice per dilution). CD45.1 and CD45.2 cells in PB were determined monthly by flow cytometry. For head-to-head competitive transplants, WBM from CD45.1 mice and CD45.2 mice were treated with vehicle or dmPGE2 and mixed with 2×10^5 competitor marrow cells from CD45.1/CD45.2 mice at ratios of 0.075:1, 0.25:1, 1:1, and 2.5:1 and transplanted into lethally irradiated CD45.1/CD45.2 mice. The proportion of CD45.1, CD45.2, and CD45.1/CD45.2 cells in PB was determined monthly. HSPC frequency was quantitated by Poisson statistics using L-CALC software (Stem Cell Technologies, Vancouver BC, Canada) with <5% contribution to chimerism considered a negative recipient. Competitive repopulating units (CRU) were calculated as described (Harrison, 1980). For secondary transplants, 2×10^6 WBM from previously transplanted F1 Hybrid mice at the 1:1 ratio at 20 weeks post-transplant were injected into lethally irradiated F1 Hybrid mice in non-competitive fashion and PB chimerism and tri-lineage reconstitution evaluated monthly.
Referring now to FIG. 1A, bone marrow from CD45.1 or CD45.2 mice were treated with vehicle or dmPGE2 respectively. CD45.1/CD45.2 hybrid marrow cells were used as competitors. Limiting dilutions were transplanted into lethally irradiated (1100 cGys, split dose) CD45.1/CD45.2 hybrid mice and chimerism in PB analyzed for 20 weeks. A representative flow plot detecting each cell population is shown (bottom panel).
Referring now to FIG. 1B, frequency analysis (top) for vehicle (red) or dmPGE2 (blue) pulsed cells, determined by Poisson statistics, at 12 weeks; P0=85,560 (vehicle) and P0=23,911 (dmPGE2 treated). Chimerism in PB and CRU analysis is shown at 12 weeks (Mean±SEM). Data represent 2 pooled experiments, n=5 mice/group/expt., each assayed individually.
This model permits quantitative comparison of engraftment and competitiveness of HSPC from control and dmPGE2 treatment groups within the same animal (FIG. 1A), as well as endogenous repopulation of host cells.
For head-to-head competitive analysis, WBM from CD45.1 and CD45.2 mice were treated with vehicle or dmPGE2 and mixed with 2×10^5 competitor marrow cells from CD45.1/CD45.2 mice at various ratios and transplanted into lethally-irradiated CD45.1/CD45.2 mice. The proportion of CD45.1, CD45.2, and CD45.1/CD45.2 cells in PB was determined monthly. For secondary, tertiary and quaternary transplants, 2×10^6 WBM from previously transplanted CD45.1/CD45.2 mice at a 1:1 ratio were injected into lethally-irradiated CD45.1/CD45.2 mice in non-competitive fashion. The proportion of CD45.1, CD45.2, and CD45.1/CD45.2 cells in PB was determined monthly. […] Data for 20 week primary transplant were from 2 pooled experiments, n=5 mice/group/experiment, each assayed individually. Data for secondary, tertiary, and quaternary transplants were from n=5 mice/group, each assayed individually

[3] = 12 weeks post-transplant, vs vehicle treated cells

Compound | time post-exposure of (maximal) CXCR4 mRNA upregulation [1] | number of treated cells giving equivalent reconstitution vs control cells ([2]; frequency analysis, limiting dilution) | period over which enhanced engraftment / HSPC frequency was stable ([2]; primary transplant) | competitive advantage / increase in HSPC frequency of PGE2-pulsed HSPC ([2]; short-term ex vivo exposure, vs control cells, Poisson statistics and CRU) | increase in CXCR4 mRNA [1] | chimerism in peripheral blood [2, 3] | increase in HSPC frequency and competitive repopulating units (CRU) [2, 3] | reconstitution of B- and T-lymphoid and myeloid lineages in PB ([2]; 32 weeks post-transplant, vs untreated competitor or vehicle treated cells) | HSPC frequency analysis P0 (Poisson statistics) ([2]; at 12 weeks, pulsed cells) | chimerism in serial (secondary, tertiary, quaternary) transplants ([2]; no additional treatment before serial transplant) | increase in HSPC frequency ([2]; throughout 20 weeks of follow up post-transplant)
CCCCC[C@H](O)/C=C/[C@H]1[C@H](O)CC(=O)[C@@H]1C/C=C\CCCC(=O)O [PGE2, Prostaglandin E2] | 6 h | one-fourth | 28 weeks and > 20 weeks | 4 fold |  |  |  |  |  |  | 
CCCCC(C)(C)[C@H](O)/C=C/[C@H]1[C@H](O)CC(=O)[C@@H]1C/C=C\CCCC(=O)O [dmPGE2, 16,16-dimethyl prostaglandin E2] | 6 h |  |  |  | 2.65 fold | increased chimerism | ~4 fold | no discernible differences | 23,911 | also seen in secondary transplants; also recorded: Increased chimerism | ~4 fold
